The values below are quoted from earlier work in patent EP1180016B1, “METHODS AND COMPOSITIONS FOR NON-VIRAL GENE THERAPY FOR TREATMENT OF HYPERPROLIFERATIVE DISEASES” (Introgen Therapeutics, Inc., priority 1999, dated 2000).

Structures can show the parent of a compound that is named as a salt. *1 amine or outer side, *2 acyl side, *3 side chain or, on linkers, in order; H or OH if unused. Where a SMILES comes first, the peptide text is derived from it. Bridges are numbered along the chain shown (N, C = ends). Roman numbers before positions name the chains, in order. [ ]: non-standard residue; d: D form. Actinocin(9to1) = Cc1c2oc3c(C)ccc(C(=O)[*:1])c3nc-2c(C(=O)[*:2])c(N)c1=O; NMeV = CN[C@H](C(=O)O)C(C)C; Sar = CNCC(=O)O

The test system of data set [1] is chronic myelogenous leukemia. The note with it: previously untreated chronic myelogenous leukemia.
The conditions of data set [2]: physiological pH.

On to `CS(=O)(=O)OCCCCOS(C)(=O)=O` [Busulfan, 1,4-butanediol dimethanesulfonate], for which, in data set [1], the “adults obtaining hematologic remission with regression or stabilization of organomegaly” value is “Approximately 90%”.
As for `O=C(O)CCCc1ccc(N(CCCl)CCCl)cc1` [Chlorambucil, 4-[bis(2-chlorethyl)amino] benzenebutanoic acid], the “terminal half-life of the parent drug” value (single oral doses of 0.6-[…]) was 1.5 h.
As to `O=NN(CCCl)C(=O)NC1CCCCC1` [Lomustine, 1-(2-chloro-ethyl)-3-cyclohexyl-1 nitrosourea], the ionization result in data set [2] is recorded as “relatively unionized”. Moreover, the “radioactivity excreted in the form of degradation products within 24 hours” value (oral radioactive lomustine, 30 mg/m^2 to 100 mg/m^2) is “about half”.
Consider `Cc1c2oc3c(C)ccc(C(=O)N[C@@H]4C(=O)N[C@H](C(C)C)C(=O)N5CCC[C@H]5C(=O)N(C)CC(=O)N(C)[C@@H](C(C)C)C(=O)O[C@@H]4C)c3nc-2c(C(=O)N[C@@H]2C(=O)N[C@H](C(C)C)C(=O)N3CCC[C@H]3C(=O)N(C)CC(=O)N(C)[C@@H](C(C)C)C(=O)O[C@@H]2C)c(N)c1=O` [Actinomycin D] (I: T[dV]P[Sar][NMeV] / II: T[dV]P[Sar][NMeV]; ester I:1-I:C, II:1-II:C; linker I:N-II:N via Actinocin(9to1)), for which, for the setting “in vivo”, the “dose excreted intact into the bile” value was “Half”.
As to `COc1cccc2c1C(=O)c1c(O)c3c(c(O)c1C2=O)C[C@@](O)(C(C)=O)C[C@@H]3O[C@H]1C[C@H](N)[C@H](O)[C@H](C)O1` [Daunorubicin, 5,12-Naphthacenedione, (8S-cis)-8-acetyl-10-[(3-amino-2,3,6-trideoxy-a-L-lyxo-hexanopyranosyl)oxy]-7,8,9,10-tetrahydro-6,8,11-trihydroxy-10-methoxy-, hydrochloride], for the setting “intravenous”, the half-life of distribution is 0.75 h.
